What follows are molecules tested against T1, HPK1 (Homo sapiens, UniProt Q92918) (assay: HPK1 biochemical enzyme assay (microfluidic mobility shift assay)). Conditions: 1000 uM (1 mM) ATP; Caliper mobility shift; 1.5 nM HPK1; 30 min preincubation; read-out: HPK1 1000UMATP caliper IC50.
T1 construct: purchased Invitrogen
How it was run: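 IC50 values, grouped into activity categories, come from 10-point titrations (top final 3 μM) preincubated 30 min with 1.5 nM enzyme and substrate at pH 7.4. ATP (1 mM), substrate (1 μM) and MgCl2 (5 mM) then added; after 60 min at RT, product separated by microfluidic mobility shift.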

T1 sequence (Q92918 whole entry): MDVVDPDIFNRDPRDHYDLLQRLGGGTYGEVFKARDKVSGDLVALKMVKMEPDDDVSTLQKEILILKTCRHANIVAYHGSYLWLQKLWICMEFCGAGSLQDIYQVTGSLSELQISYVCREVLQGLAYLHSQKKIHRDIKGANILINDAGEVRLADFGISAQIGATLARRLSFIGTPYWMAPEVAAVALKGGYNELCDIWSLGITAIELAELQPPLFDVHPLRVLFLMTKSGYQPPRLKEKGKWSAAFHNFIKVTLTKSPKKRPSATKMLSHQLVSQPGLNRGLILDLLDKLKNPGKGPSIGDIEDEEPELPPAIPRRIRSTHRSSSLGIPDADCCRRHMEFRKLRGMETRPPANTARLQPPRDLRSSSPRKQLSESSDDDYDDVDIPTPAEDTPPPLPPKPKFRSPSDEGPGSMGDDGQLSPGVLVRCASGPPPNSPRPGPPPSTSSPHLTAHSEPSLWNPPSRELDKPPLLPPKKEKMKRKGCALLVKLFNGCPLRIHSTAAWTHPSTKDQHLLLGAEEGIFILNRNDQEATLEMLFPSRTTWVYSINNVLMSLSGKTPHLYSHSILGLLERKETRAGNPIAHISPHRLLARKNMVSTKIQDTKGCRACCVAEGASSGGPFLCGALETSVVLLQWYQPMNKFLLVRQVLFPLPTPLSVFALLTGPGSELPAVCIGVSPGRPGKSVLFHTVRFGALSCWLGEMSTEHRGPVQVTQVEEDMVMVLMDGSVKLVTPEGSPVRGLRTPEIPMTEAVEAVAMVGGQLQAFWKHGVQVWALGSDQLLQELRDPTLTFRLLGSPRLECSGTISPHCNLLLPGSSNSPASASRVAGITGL

`O=c1[nH]ccc2nc(-c3cc4c(cc3F)C(N3CCOCC3)CC4)cc(Nc3ccc(N4CCC(O)CC4)cn3)c12` (stereo not shown) [I-259, 2-(6-fluoro-1-morphoino-indan-5-y)-4-[[5-(4-hydroxy-1-piperidy)-2-pyridy]amino]-6H-1,6-naphthyridin-5-one] and `O=c1[nH]ccc2nc(-c3cc4c(cc3F)CCC4N3CC4(CCOC4)C3)cc(Nc3ccc(N4CCC(O)CC4)cn3)c12` (stereo not shown) [I-260, 2-[6-fluoro-3-(6-oxa-2-azaspiro [3.4]octan-2-yl)indan-5-yl]-4-[[5-(4-hydroxy-1-piperidyl)-2-pyridyl]amino]-6H-1,6-naphthyridin-5-one] cannot be ordered by IC50: no more than 100 nM for the first, 100 to 1000 nM for the second.

First: CNC(C)(c1ccc(F)c(-c2cc(Nc3ccc(N4CCC(O)CC4)cn3)c3c(=O)[nH]ccc3n2)c1)C(F)(F)F (stereo not shown) [I-263, 2-[2-fluoro-5-[2,2,2-trifluoro-1-methyl-1-(methyl-amino)ethyl]phenyl]-4-[[5-(4-hydroxy-1-piperidyl)-2-pyridyl]amino]-6H-1,6-naphthyridin-5-one]
Second: Cc1cnccc1-c1cc(Nc2ccc(N3CCC(O)CC3)cn2)c2c(=O)[nH]ccc2n1 [I-280, 4-[[5-(4-hydroxy-1-piperidyl)-2-pyridyl]amino]-2-(3-methyl-4-pyridyl)-6H-1,6-naphthyridin-5-one]
The IC50 of the first is lower: no more than 100 nM for the first, greater than 1000 nM for the second. The first is the more potent here.

`O=C(c1ccc(-c2cc(Nc3ccc(N4CCNCC4)cn3)c3c(=O)[nH]ccc3n2)c(F)c1)N1CC2CCC1CC2` [I-264, 2-[4-(3-azabicyclo [2.2.2]octane-3-carbonyl)-2-fluoro-phenyl]-4-[(5-piperazin-1-yl-2-pyridyl)amino]-6H-1,6-naphthyridin-5-one] and `CN1CCN(c2ccc(Nc3cc(-c4ccc(C(=O)N5CC6CCC5CC6)cc4F)nc4cc[nH]c(=O)c34)nc2)CC1` [I-278, 2-[4-(3-azabicyclo [2.2.2]octane-3-carbonyl)-2-fluoro-phenyl]-4-[[5-(4-methyl-piperazin-1-yl)-2-pyridyl]amino]-6H-1,6-naphthyridin 5-one] cannot be ordered by IC50: no more than 100 nM for the first, 100 to 1000 nM for the second.

First: O=c1[nH]ccc2nc(-c3c(F)ccc4c3CCNC4)cc(Nc3cc(C4CCOC4)n[nH]3)c12 (stereo not shown) [I-265, 2-(6-fluoro-1,2,3,4-tetrahydro-isoquinolin-5-yl)-4-[(3-THF-3-yl-1H-pyrazol-5-yl)amino]-6H-1,6-naphthyridin-5-one]
Second: CN1CCc2c(ccc(F)c2-c2cc(Nc3ccc(N4CCC(O)CC4)cn3)c3c(=O)[nH]ccc3n2)C1 [I-268, 2-(6-fluoro-2-methyl-3,4-dihydro-1H-isoquinolin-5-yl)-4-[[5-(4-hydroxy-1-piperidyl)-2-pyridyl]amino]-6H-1,6-naphthyridin-5-one]
The IC50 of the first is lower: no more than 100 nM for the first, greater than 1000 nM for the second. The first is the more potent here.

Going from `O=C(c1cc(F)c(-c2cc(Nc3ccc(N4CCC(O)CC4)cn3)c3c(=O)[nH]ccc3n2)cc1C1CC1)N1CCCCC1` [I-270, 2-[5-cyclopropyl-2-fluoro-4-(piperidine-1-carbonyl)phenyl]-4-[[5-(4-hydroxy-1-piperidyl)-2-pyridyl]amino]-6H-naphthyridin-5-one] to `O=c1[nH]ccc2nc(-c3ccc(C4CCCO4)cc3F)cc(Nc3ccc(N4CCC(O)CC4)cn3)c12` (stereo not shown) [I-276, 2-(2-fluoro-4-THF-2-yl-phenyl)-4-[[5-(4-hydroxy-1-piperidyl)-2-pyridyl]amino]-6H-1,6-naphthyridin-5-one], the IC50 rises from no more than 100 nM to greater than 1000 nM. The first is the more potent here.

`Cn1ccnc1N1CCN(c2cc(Nc3ccc(N4CCC(O)CC4)cn3)c3c(=O)[nH]ccc3n2)CC1` [I-271, 4-[[5-(4-hydroxy-1-piperidyl)-2-pyridyl]amino]-2-[4-(1-methyl-imidazol-2-yl)piperazin-1-yl]-6H-1,6-naphthyridin-5-one] and `Cc1c[nH]nc1-c1cc(Nc2ccc(N3CCC(O)CC3)cn2)c2c(=O)[nH]ccc2n1` [I-283, 4-[[5-(4-hydroxy-1-piperidyl)-2-pyridyl]amino]-2-(4-methyl-1H-pyrazol-3-yl)-6H-1,6-naphthyridin-5-one] cannot be ordered by IC50: no more than 100 nM for the first, no more than 100 nM for the second.

`CN1CCN(c2ccc(Nc3cc(-c4ccc(C(=O)N5CC6C(C5)C6(F)F)cc4F)nc4cc[nH]c(=O)c34)nc2)CC1` (stereo not shown) [I-279, 2-[4-(6,6-difluoro-3-azabicyclo [3.1.0]hexane-3-carbonyl)-2-fluoro-phenyl]-4-[[5-(4-methyl-piperazin-1-yl)-2-pyridyl]amino]-6H-1,6-naphthyridin-5-one] and `Cc1ccncc1-c1cc(Nc2ccc(N3CCC(O)CC3)cn2)c2c(=O)[nH]ccc2n1` [I-281, 4-[[5-(4-hydroxy-1-piperidyl)-2-pyridyl]amino]-2-(4-methyl-3-pyridyl)-6H-1,6-naphthyridin-5-one] cannot be ordered by IC50: no more than 100 nM for the first, no more than 100 nM for the second.

`O=c1[nH]ccc2nc(-c3ccnc4[nH]ccc34)cc(Nc3ccc(N4CCC(O)CC4)cn3)c12` [I-282, 4-[[5-(4-hydroxy-1-piperidyl)-2-pyridyl]amino]-2-(1H-pyrrolo [2,3-b]pyridin-4-yl)-6H-1,6-naphthyridin-5-one] and `O=c1[nH]ccc2nc(-c3cnc4ccccn34)cc(Nc3ccc(N4CCC(O)CC4)cn3)c12` [I-284, 4-[[5-(4-hydroxy-1-piperidy)-2-pyridyl]amino]-2-imidazo[1,2-a]pyridin-3-yl-6H-1,6-naphthyridin-5-one] cannot be ordered by IC50: greater than 1000 nM for the first, greater than 1000 nM for the second.
